Values quoted from earlier work in patent US20180280562A1, “Fibrous Structures Comprising Sensates” (The Procter & Gamble Company, priority 2017, published 2018).

Settings: concentration where the cooling effect could be clearly recognized

Q: Which cooling threshold does the source give for CC(C)[C@@H]1CC[C@@H](C)C[C@@H]1O [1-neomenthol] here?
A: about 3,000 ppb

Q: For CC(C)[C@@H]1CC[C@@H](C)C[C@H]1O [L-menthol], which cooling threshold is on record?
A: about 800 ppb

Q: With CC(C)[C@@H]1CC[C@@H](C)C[C@@H]1O [d-neomenthol] as the compound, how does the cooling threshold read?
A: about 25,000 ppb
